Source: patent US10377734B2, “Resist composition, method for forming resist pattern, polyphenol derivative for use in the composition” (Mitsubishi Gas Chemical Company, Inc., priority 2013, dated 2019)

Assay: Solubility test of compound in safe solvent
Assay type: physicochemical
Conditions: 23° C., ultrasonic wave 30 minutes, visual evaluation; for Solubility test of compound in safe solvent CHN: CHN (cyclohexanone); for Solubility test of compound in safe solvent PGME: PGME (propylene glycol monomethyl ether)
Experimental: (1) Solubility Test of Compound in Safe Solvent
The solubility of the compound in CHN, PGME and PGMEA was evaluated according to the following standard using the dissolution amount in each solvent. The dissolution amount was determined by precisely weighing the compound in a test tube at 23° C.; adding the target solvent to the compound so that a predetermined concentration of the liquid to be obtained was set; applying a ultrasonic wave to the liquid in an ultrasonic washing machine for 30 minutes; and visually evaluating the state of the resulting liquid.
A: 5.0% by mass Dissolution amount
B: 3.0% by mass Dissolution amount <5.0% by mass
C: Dissolution amount <3.0% by mass

Solubility test of compound in safe solvent CHN	Solubility test of compound in safe solvent PGME	Solubility test of compound in safe solvent PGMEA	SMILES
A (5.0% by mass Dissolution amount)	A (5.0% by mass Dissolution amount)	A (5.0% by mass Dissolution amount)	CC(C)(C)OC(=O)Oc1ccc(C(c2ccc(OC(=O)OC(C)(C)C)cc2)c2ccc3ccc(C(c4ccc(OC(=O)OC(C)(C)C)cc4)c4ccc(OC(=O)OC(C)(C)C)cc4)cc3c2)cc1 [TetP-1-BOC, reference compound]

SMILES	Solubility test of compound in safe solvent CHN	Solubility test of compound in safe solvent PGME	Solubility test of compound in safe solvent PGMEA
CC(C)(C)OC(=O)COc1ccc2c3c(ccc2c1)Oc1ccc2cc(OCC(=O)OC(C)(C)C)ccc2c1C3c1ccc(-c2ccccc2)cc1 [XBisN-1-MeBOC]	A (5.0% by mass Dissolution amount)	A (5.0% by mass Dissolution amount)	B (3.0% by mass Dissolution amount <5.0% by mass)
CC(C)(C)OC(=O)Oc1ccc2c(C(c3ccc(-c4ccccc4)cc3)c3c(OC(=O)OC(C)(C)C)ccc4cc(OC(=O)OC(C)(C)C)ccc34)c(OC(=O)OC(C)(C)C)ccc2c1 [BisN-1-BOC]	A (5.0% by mass Dissolution amount)	B (3.0% by mass Dissolution amount <5.0% by mass)	A (5.0% by mass Dissolution amount)
CC(C)(C)OC(=O)Oc1ccc2c3c(ccc2c1)Oc1ccc2cc(OC(=O)OC(C)(C)C)ccc2c1C3c1ccc(-c2ccccc2)cc1 [XBisN-1-BOC]	A (5.0% by mass Dissolution amount)	B (3.0% by mass Dissolution amount <5.0% by mass)	A (5.0% by mass Dissolution amount)
CC(C)(C)OC(=O)COc1ccc2c(C(c3ccc(-c4ccccc4)cc3)c3c(OCC(=O)OC(C)(C)C)ccc4cc(OCC(=O)OC(C)(C)C)ccc34)c(OCC(=O)OC(C)(C)C)ccc2c1 [BisN-1-MeBOC]	A (5.0% by mass Dissolution amount)	A (5.0% by mass Dissolution amount)	B (3.0% by mass Dissolution amount <5.0% by mass)
